Reference: EP2198709A1, “Method for treating resistant animal pests” (Bayer CropScience AG, priority 2008, dated 2010)

Assays:
Type in all cases: in vivo
Bemisia tabaci SUD-S = experiment: Leaf-dip bioassay, adult whiteflies, insecticide-susceptible strain SUD-S; details: adults, mortality after 72 h
Excerpt: (§1) Es wurden Versuche durchgeführt, um die überlegene Blattwirkung von Enaminocarbonylverbindungen gegen adulte Tiere eines Stamms von Bemisia tabaci zu zeigen, der bekanntermaßen resistent ist gegen Neonikotinoid-Insektizide sowie andere Insektizidklassen, einschließlich Insekten-Wachstumsregulatoren (wie Buprofezin) und Antifeedants (Substanzen, die einen Schaderreger vom Fraß abhalten) (wie Pymetrozin).
(§2) Baumwollblattscheiben (30 mm im Durchmesser) wurden für 5 sec in wässrige Lösungen technischer Insektizide, enthaltend 0,2 g/l Triton-X-100 als nicht-ionisches Benetzungsmittel, getaucht. Luftgetrocknete Blattscheiben wurden dann mit der adaxialen Seite nach unten auf ein Agarbett (12 g/l) in einer kleinen Petrischale (40 mm im Durchmesser) gelegt. Adulte Weiße Fliegen wurden mittels eines Vakuum-getriebenen Aspirators aus Aufzuchtkäfigen eingesammelt und 20 adulte Tiere wurden nach kurzer CO2-Narkose auf die Blattscheiben gelegt. Anschließend wurde jede Petrischale mit einem belüfteten Deckel verschlossen und umgedreht aufbewahrt. Nach 72 h wurde die Mortalität der Weißen Fliegen bestimmt. Jedes Insektizid wurde mindestens dreifach mit 2-oder 3-fach Bestimmungen pro Konzentration getestet.
(§3) LC50-Werte wurden aus Probit-Regressionen unter Verwendung des Computerprogramms POLO-PC 2 (LeOra Software, Berkeley, USA) berechnet.
(§4) Tabelle 1. Log-Dosis Probit Mortalitätsdaten für verschiedene Klassen von Insektiziden erhalten aus Blatt-Tauch-Bioassays gegen adulte Tiere zweier Bemisia tabaci Stämme, SUD-S und ESP-00, die bekanntermaßen Insektizid-empfindlich (SUD-S) bzw. multiresistent (ESP-00) sind (Stumpf und Nauen, 2003). Mortalität wurde nach 72 h bestimmt, mit Ausnahme von Buprofezin (10-12 d).

Bemisia tabaci ESP-00 = experiment: Leaf-dip bioassay, adult whiteflies, multi-resistant strain ESP-00; details: adults; for ESP-00 LC50: multi-resistant strain ESP-00, mortality after 72 h
Excerpt: as §1, §2, §3, §4

[1] = tested on: Nilaparvata lugens Bayer S; experiment: Spray test on infested rice seedlings (standard screening), susceptible strain Bayer S; details: rice seedlings sprayed, evaluation 7 days after infection
Excerpt: Reissetzlinge wurden mit Stämmen von Nilaparvata lugens (Bayer S und Vietnam) infiziert und mit der Verbindung I-5 bzw. mit Imidacloprid besprüht. Die Auswertung erfolgte 7 Tage nach Infektion (Standard-Screening-Verfahren).

[2] = tested on: Nymphen von Bemisia tabaci; experiment: Field trial on aubergine plants, drench, against nymphs of neonicotinoid-resistant whiteflies (Almeria); details: drenched 3x, 150 g ai/ha/m CH, I-5 SL 300, Imidacloprid SL 200
Excerpt: In Almeria (Südspanien) wurden Auberginenpflanzen, die stark mit Nymphen von bekanntermaßen Neonikotinoyl-resistenten weißen Fliegen (Bemisia tabaci) infiziert waren, jeweils drei Mal im Abstand von 9 und 12 Tagen mit der Verbindung I-5 (SL 300, 150 g ai/ha/m CH (g aktive Substanz/ha/m CH, CH = Laubwand-Höhe) bzw. mit Imidacloprid (SL 200, 150 g ai/ha/m CH) gegossen. Zu verschiedenen Zeitpunkten nach der dritten Behandlung (DAC = Tage nach 3. Behandlung) wurde die Wirksamkeit (in % Abbott: Verhältnis der Anzahl Nymphen auf behandelter Pflanze / Fläche zur Anzahl Nymphen auf Kontrolle) der beiden Substanzen gegen Nymphen von Bemisia tabaci in bestimmt.

[3] = tested on: Nymphen von Bemisia tabaci; experiment: Field trial on cotton plants, spray, against nymphs of neonicotinoid-resistant whiteflies (Brenes); details: sprayed 2x, 150 g ai/ha/m CH, I-5 SL 100, Imidacloprid SL 200
Excerpt: In Brenes (Spanien) wurden Baumwollpflanzen, die stark mit Nymphen von bekanntermaßen Neonikotinoyl-resistenten Weißen Fliegen (Bemisia tabaci) infiziert waren, jeweils zwei Mal im Abstand von 13 Tagen mit der Verbindung I-5 (SL 100, 150 g ai/ha/m CH (g aktive Substanz/ha/m CH, CH = Laubwand-Höhe) bzw. mit Imidacloprid (SL 200, 150 g ai/ha/m CH) besprüht. Zu verschiedenen Zeitpunkten nach der ersten bzw. zweiten Behandlung (DAA = Tage nach 1. Behandlung, DAB = Tage nach zweiter Behandlung) wurde die Wirksamkeit (in % Abbott: Verhältnis der Anzahl Nymphen auf behandelter Pflanze / Fläche zur Anzahl Nymphen auf Kontrolle) der beiden Substanzen gegen Nymphen von Bemisia tabaci in bestimmt.

[4] = tested on: Eier von Bemisia argentifolii; experiment: Field trial on melon plants, spray, against eggs of neonicotinoid-resistant silverleaf whiteflies (Arizona); details: 150 g ai/ha/m CH, I-5 SL 100, Imidacloprid SC 192
Excerpt: In Arizona (USA) wurden Melonenpflanzen, die stark mit Eiern von bekanntermaßen Neonikotinoyl-resistenten Silberflügeligen Weißen Fliegen (Bemisia argentifolii) infiziert waren, jeweils zwei Mal im Abstand von 15 Tagen mit der Verbindung I-5 (SL 100, 150 g ai/ha/m CH (g aktive Substanz/ha/m CH, CH = Laubwand-Höhe) bzw. mit Imidacloprid (SC 192, 150 g ai/ha/m CH) besprüht. Zu verschiedenen Zeitpunkten nach der ersten bzw. zweiten Behandlung (DAA = Tage nach 1. Behandlung, DAB = Tage nach zweiter Behandlung) wurde die Wirksamkeit (in % Abbott: Verhältnis der Anzahl Eier auf behandelter Pflanze / Fläche zur Anzahl Eier auf Kontrolle) der beiden Substanzen gegen Eier von Bemisia argentifolii bestimmt.

[5] = tested on: Trialeurodes vaporariorum; experiment: Trial on poinsettia, spray, against neonicotinoid-resistant greenhouse whiteflies (Netherlands); details: 150 g ai/ha/m CH, SL 100, Imidacloprid SL 200
Excerpt: In Zwaagdiyk (Niederlande) wurden Weihnachtssterne, die stark mit bekanntermaßen Neonikotinoyl-resistenten Gewächshaus-Weißen Fliegen (Trialeurodes vaporariorum) infiziert waren, jeweils zwei Mal im Abstand von 7 Tagen mit der Verbindung 1-5 (SL 100, 150 g ai/ha/m CH (g aktive Substanz/ha/m CH, CH = Laubwand-Höhe) bzw. mit Imidacloprid (SL 200, 150 g ai/ha/m CH) besprüht. Zu verschiedenen Zeitpunkten nach der ersten bzw. zweiten Behandlung (DAA = Tage nach 1. Behandlung, DAB = Tage nach zweiter Behandlung) wurde die Wirksamkeit (in % Abbott: Verhältnis der Anzahl Tiere auf behandelter Pflanze / Fläche zur Anzahl Tiere auf Kontrolle) der beiden Substanzen gegen Trialeurodes vaporariorum bestimmt.

[6] = 7 DAB (days after 2nd treatment), sprayed 2x
[7] = 8 DAA (days after 1st treatment), sprayed

| SMILES | SUD-S LC50 (Bemisia tabaci SUD-S) [ppm] | ESP-00 LC50 (Bemisia tabaci ESP-00) [ppm] | Bayer S (empfindlicher Stamm) LC50 [1] | Effizienz ([2]; 7 DAC) | Effizienz ([2]; 14 DAC) | Effizienz ([2]; 21 DAC) | Effizienz ([3]; 13 DAB) | Effizienz ([3]; 15 DAB) | Effizienz ([3]; 25 DAB) | Effizienz ([3]; 36 DAB) | Effizienz [4, 6] | Effizienz [4, 7] | Effizienz ([4]; 13 DAB, sprayed 2x) [% Abbott] | Effizienz ([4]; 14 DAA, sprayed) | Effizienz ([5]; 7 DAA, sprayed) | Effizienz ([5]; 7 DAB, sprayed 2x) | Effizienz ([5]; 14 DAB, sprayed 2x) | Effizienz ([5]; 21 DAB, sprayed 2x) | Effizienz ([5]; 29 DAB, sprayed 2x) | Resistenz / Kreuz-resistenz von adulten B. tabaci Tieren des Stamms ESP-00 im Vergleich zu SUD-S (Bemisia tabaci ESP-00; leaf-dip, result in words) |
| --- | --- | --- | --- | --- | --- | --- | --- | --- | --- | --- | --- | --- | --- | --- | --- | --- | --- | --- | --- | --- |
| O=[N+]([O-])NC1=NCCN1Cc1ccc(Cl)nc1 [Imidacloprid] | 0.82 | 300 | 0,0049 g/ha | 41 % Abbott | 50,7 % Abbott | 21 % Abbott | 60 % Abbott | 56,9 % Abbott | 42,1 % Abbott | 24,3 % Abbott | 30,2 % Abbott | 66,1 % Abbott | 0 | 69,5 % Abbott | 11,4 % Abbott | 9,9 % Abbott | 0 % Abbott | 3,7 % Abbott | 18,6 % Abbott | – |
| O=C1C=C(N(Cc2ccc(Cl)nc2)CC(F)F)CO1 [Verbindung I-5, 4-{[(6-Chlorpyrid-3-yl)methyl](2,2-difluorethyl)amino}furan-2(5H)-on] | 6.7 | 36 | 0,36 g/ha | 79,1 % Abbott | 63,7 % Abbott | 66,8 % Abbott | 78,9 % Abbott | 63,5 % Abbott | 77,8 % Abbott | 70,8 % Abbott | 81,6 % Abbott | 97,6 % Abbott | 69 | 72,9 % Abbott | 23 % Abbott | 50,9 % Abbott | 39,1 % Abbott | 62,2 % Abbott | 50,9 % Abbott | nur geringfügige Kreuz-resistenz |
